Drawing on patent US5284852A, “Angiotensin II receptor blocking 2,3,6-substituted quinazolinones” (American Cyanamid Company, priority 1993, dated 1994), this text covers IC50 for one compound.

In the assay the target is T1, Angiotensin II Receptor (Bos taurus, UniProt P25104).
T1 construct: The brownish tissue forming the adrenal cortex is scraped off and finely minced with scissors before homogenization; tissue Maxwell-Cohen (local slaughter house); host or cells: beef adrenal cortex, microsomal membranes (100,000×g pellet)
T1 sequence (P25104 1-359): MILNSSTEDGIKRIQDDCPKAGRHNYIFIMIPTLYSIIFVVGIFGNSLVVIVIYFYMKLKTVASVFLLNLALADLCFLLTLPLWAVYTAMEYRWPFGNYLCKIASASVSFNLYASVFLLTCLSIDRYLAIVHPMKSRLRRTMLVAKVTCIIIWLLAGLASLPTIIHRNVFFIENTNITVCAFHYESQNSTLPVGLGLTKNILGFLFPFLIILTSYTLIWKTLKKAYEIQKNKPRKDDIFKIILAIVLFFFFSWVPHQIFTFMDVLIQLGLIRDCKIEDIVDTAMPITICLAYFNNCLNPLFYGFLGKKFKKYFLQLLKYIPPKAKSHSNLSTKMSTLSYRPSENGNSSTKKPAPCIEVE
Description: Receptor binding assay: displacement of [125I](Sar1,Ile8)AngII from beef adrenal cortex microsomal membranes. From the text:
Beef adrenals are obtained from a local slaughter house (Maxwell-Cohen). [^125 I](Sar^1,-Ile^8)AngII, S.A. 2200 Ci/mmole, is purchased from Dupont (NEN®, Boston, Mass.). All unlabeled AngII analogs, dimethylsulfoxide (DMSO), nucleotides, bovine serum albumin (BSA) are purchased from Sigma Chemical Co., St. Louis, Mo. U.S.A.
Approximately sixteen (16) to twenty (20) beef adrenal glands are processed as follows: fresh adrenal glands received on crushed ice are cleaned of fatty tissues and the tough membranes encapsulating the glands are removed and discarded. The brownish tissue forming the adrenal cortex is scraped off and finely minced with scissors before homogenization. Care is taken to avoid contamination with medullary tissue during dissection. The scraped cortices are suspended in twenty volumes of an ice-cold buffer medium consisting of 10 mM Tris.HCl (pH 7.4 at 22° C.) and containing 1.0 mM EDTA and 0.2M sucrose. Unless otherwise indicated, all subsequent operation are done at 4° C. […] The homogenate is centrifuged first at low speed (3,000×g) for 10 min. […] A 100 ul aliquot is withdrawn and the protein content of the preparation is determined by the Lowry's method (Lowry, O. H., Rosebrough, N. F., Farr, A. L. and Randall, R. J., Protein measurement with Folin phenol reagent. J. Biol. Chem., […], 265-275, 1951). […]

Molecules are shown by their SMILES.

`CCCCc1nc2ccc(COc3ccccc3)cc2c(=O)n1Cc1ccc(-c2ccccc2-c2nnn[nH]2)cc1` [Example 36, 2-Butyl-6-(phenoxymethyl)-3-[[2'-(1H-tetrazol-5-yl) [1,1'-biphenyl]-4-yl]methyl]-4(3H)-quinazolinone] registered an IC50 of 130 nM.

As usually defined, the IC50 is the concentration needed to halve the response being measured.
